{
  "source": "patent US5120726A",
  "about": "“Rapamycin hydrazones” (American Home Products Corporation, priority 1991, dated 1992)",
  "key": {"[1]": {"tested_on": "cells from the thymus of normal BALB/c mice (lymphocyte proliferation)", "assay": "comitogen-induced thymocyte proliferation procedure (LAF), lymphocyte proliferation", "assay_type": "cell-based", "settings": "for IC50: Mus musculus, Lymphocyte, read-out: LAF IC50; for LAF (ratio): ratio vs rapamycin", "experimental": "(§1) Immunosuppressive activity was evaluated in an in vitro standard pharmacological test procedure to measure lymphocyte proliferation (LAF) and in two in vivo standard pharmacological test procedures. The first in vivo procedure was a popliteal lymph node (PLN) test procedure which measured the effect of compounds of this invention on a mixed lymphocyte reaction and the second in vivo procedure evaluated the survival time of a pinch skin graft.\nBriefly, cells from the thymus of normal BALB/c mice are cultured for 72 hours with PHA and IL-1 and pulsed with tritiated thymidine during the last six hours. […] Cells are harvested and incorporated radioactivity is determined. Inhibition of lymphoproliferation is assessed as percent change in counts per minute from non-drug treated controls. The results are expressed by the following ratio, or as the percent inhibition of lymphoproliferation at 1 μM. [formula]"}, "[2]": {"tested_on": "mixed lymphocyte reaction (popliteal lymph node)", "assay": "popliteal lymph node (PLN) test procedure, effect on a mixed lymphocyte reaction", "assay_type": "in vivo, C3H mice (BALB/c donors)", "settings": "ratio vs rapamycin; p.o. daily Day 0 to Day 4", "experimental": "as §1\nA mixed lymphocyte reaction (MLR) occurs when lymphoid cells from genetically distinct animals are combined in tissue culture. Each stimulates the other to undergo blast transformation which results in increased DNA synthesis that can be quantified by the incorporation of tritiated thymidine. Since stimulating a MLR is a function of disparity at Major Histocompatibility antigens, an in vivo popliteal lymph node (PLN) test procedure closely correlates to host vs. graft disease. Briefly, irradiated spleen cells from BALB/c donors are injected into the right hind foot pad of recipient C3H mice. The drug is given daily, p.o. from Day 0 to Day 4. On Day 3 and Day 4, tritiated thymidine is given i.p., b.i.d. On Day 5, the hind popliteal lymph nodes are removed and dissolved, and radioactivity counted. […] Percent suppression is calculated using the non-drug treated animals as allogenic control. […]"}, "[3]": {"tested_on": "pinch skin graft from male DBA/2 donors transplanted to male BALB/c recipients", "assay": "survival time of pinch skin graft", "assay_type": "in vivo", "settings": "intraperitoneally; mean ± S.D.", "experimental": "as §1\nThe second in vivo test procedure is designed to determine the survival time of pinch skin graft from male DBA/2 donors transplanted to male BALB/c recipients. The method is adapted from Billingham R. E. and Medawar P. B., J. Exp. Biol. 28:385-402, (1951). Briefly, a pinch skin graft from the donor is grafted on the dorsum of the recipient as a homograft, and an autograft is used as control in the same region. […] Untreated recipients serve as rejection control. The graft is monitored daily and observations are recorded until the graft becomes dry and forms a blackened scab. This is considered as the rejection day. The mean graft survival time (number of days±S.D.) of the drug treatment group is compared with the control group."}, "T-cell activation": {"tested_on": "T-cell activation", "settings": "cited from earlier work"}, "[4]": {"tested_on": "organ grafts in histoincompatible rodents", "settings": "cited from earlier work"}, "Candida albicans": {"tested_on": "Candida albicans", "settings": "both in vitro and in vivo; cited from earlier work"}, "adjuvant arthritis": {"tested_on": "adjuvant arthritis", "settings": "in vivo; cited from earlier work"}, "[5]": {"settings": "thymocytes cultured 72 hours with PHA and IL-1, tritiated thymidine last six hours"}},
  "note": "Like-named read-outs stand apart in the source and are kept apart here.",
  "data": [
    {"smiles": "CO[C@H]1C[C@@H]2CC[C@@H](C)[C@@](O)(O2)C(=O)C(=O)N2CCCC[C@H]2C(=O)O[C@H]([C@H](C)C[C@@H]2CC[C@@H](O)[C@H](OC)C2)CC(=NNC(N)=O)[C@H](C)/C=C(\\C)[C@@H](O)[C@@H](OC)C(=O)[C@H](C)C[C@H](C)/C=C/C=C/C=C/1C", "note": "[Example 4, Rapamycin 27-semicarbazone]", "values": [
      {"measurement": "IC50", "setting": "[1]; [5]", "result": 0.0372, "unit": "µM"},
      {"measurement": "LAF (ratio)", "setting": "[1]; [5]", "result": 0.24},
      {"measurement": "PLN (ratio)", "setting": "[2]", "result": 1.07}
    ]},
    {"smiles": "CO[C@H]1C[C@@H]2CC[C@@H](C)[C@@](O)(O2)C(=O)C(=O)N2CCCC[C@H]2C(=O)O[C@H]([C@H](C)C[C@@H]2CC[C@@H](O)[C@H](OC)C2)CC(=NNC(=O)Nc2ccccc2)[C@H](C)/C=C(\\C)[C@@H](O)[C@@H](OC)C(=O)[C@H](C)C[C@H](C)/C=C/C=C/C=C/1C", "note": "[Example 2, Rapamycin 27-(4-Phenylsemicarbazone)]", "values": [
      {"measurement": "Skin Graft survival time (days + SD)", "setting": "[3]", "result": "7.83 ± 1.3", "unit": "days"},
      {"measurement": "IC50", "setting": "[1]; [5]", "result": 0.0192, "unit": "µM"},
      {"measurement": "LAF (ratio)", "setting": "[1]; [5]", "result": 0.45}
    ]},
    {"smiles": "CO[C@H]1C[C@@H]2CC[C@@H](C)[C@@](O)(O2)C(=O)C(=O)N2CCCC[C@H]2C(=O)O[C@H]([C@H](C)C[C@@H]2CC[C@@H](O)[C@H](OC)C2)CC(=O)[C@H](C)/C=C(\\C)[C@@H](O)[C@@H](OC)C(=O)[C@H](C)C[C@H](C)/C=C/C=C/C=C/1C", "note": "[Rapamycin]", "values": [
      {"measurement": "Skin Graft survival time (days + SD)", "setting": "[3]", "result": "12.0 ± 1.7", "unit": "days"},
      {"measurement": "inhibition of T-cell activation", "setting": "T-cell activation", "result": "inhibit T-cell activation"},
      {"measurement": "survival time of organ grafts", "setting": "[4]", "result": "prolong survival time of organ grafts in histoincompatible rodents"},
      {"measurement": "antifungal activity", "setting": "Candida albicans", "result": "antifungal activity, particularly against Candida albicans, both in vitro and in vivo"},
      {"measurement": "IC50", "setting": "[1]", "result": "0.0085 to 0.0088", "unit": "µM"},
      {"measurement": "effect in adjuvant arthritis model", "setting": "adjuvant arthritis", "result": "effective"},
      {"measurement": "PLN (ratio)", "setting": "[2]", "result": 1}
    ]},
    {"smiles": "CO[C@H]1C[C@@H]2CC[C@@H](C)[C@@](O)(O2)C(=O)C(=O)N2CCCC[C@H]2C(=O)O[C@H]([C@H](C)C[C@@H]2CC[C@@H](O)[C@H](OC)C2)CC(=NNC(C)=O)[C@H](C)/C=C(\\C)[C@@H](O)[C@@H](OC)C(=O)[C@H](C)C[C@H](C)/C=C/C=C/C=C/1C", "note": "[Example 1, Rapamycin 27-(methylcarbonyl hydrazone)]", "values": [
      {"measurement": "Skin Graft survival time (days + SD)", "setting": "[3]", "result": "10.50 ± 0.6", "unit": "days"},
      {"measurement": "IC50", "setting": "[1]; [5]", "result": 0.0173, "unit": "µM"},
      {"measurement": "LAF (ratio)", "setting": "[1]; [5]", "result": 0.50}
    ]},
    {"smiles": "CO[C@H]1C[C@@H]2CC[C@@H](C)[C@@](O)(O2)C(=O)C(=O)N2CCCC[C@H]2C(=O)O[C@H]([C@H](C)C[C@@H]2CC[C@@H](O)[C@H](OC)C2)CC(=NNc2ccccn2)[C@H](C)/C=C(\\C)[C@@H](O)[C@@H](OC)C(=O)[C@H](C)C[C@H](C)/C=C/C=C/C=C/1C", "note": "[Example 3, Rapamycin 27-(2-Pyridinylhydrazone)]", "values": [
      {"measurement": "IC50", "setting": "[1]; [5]", "result": 0.0159, "unit": "µM"},
      {"measurement": "LAF (ratio)", "setting": "[1]; [5]", "result": 0.55}
    ]}
  ]
}
